# Experimental data reported in patent US20190160084A1, “METHODS FOR THE TREATMENT OF CANCER USING MEGLUMINE” (Dynamis Pharmaceuticals, Inc., priority 2016, published 2019).
# Assays:
# THP-1 cells = experiment: LPS-induced cytokine levels in media of THP-1 cells (Bio-Plex immunoassay); assay type: cell-based, human; conditions: 25 ng LPS, 40 or 80 mM meglumine hydrochloride, 24 hours
# Experimental: THP-1 cells (human acute monocytic leukemia) were grown in a 24-well polystyrene plate in 1 ml of RPMI media with 10% fetal bovine serum. Cells were treated with 25 ng of lipopolysaccharide (LPS) (Sigma) in the presence or absence of 40 or 80 mM meglumine hydrochloride. After 24 hours, the media was centrifuged to remove the cells and analyzed for cytokine content using a Bio-Plex® immunoassay (Bio-Rad). The LPS induced levels of IL-17, IL-8, MIP-1 alpha, MIP-1 beta, IL-9 and IP-10 were decreased in the presence of meglumine (FIG. 5).
# [1] = test system: skin tumors in DMBA-initiated K6/ODC transgenic mice; experiment: Skin tumor formation and growth in DMBA-initiated K6/ODC transgenic mice, meglumine in drinking water; assay type: in vivo
# Experimental: K6/ODC transgenic mice are highly susceptible to developing skin tumors following a single treatment with a low subthreshold dose of the carcinogen DMBA. The effect of oral administration of meglumine in the drinking water was tested on the formation and growth of skin tumors in DMBA-initiated K6/ODC transgenic mice and their normal littermates. Four day old K6/ODC transgenic mice and their normal littermates were initiated with a single topical application of 300 nmol DMBA in 50 μl acetone.
# (§1) Upon weaning, K6/ODC transgenic mice and their normal littermates were divided into two treatment groups where they received ad lib either tap water or water with 37.5 mM meglumine (Sigma Chemical Co.) in their drinking water. Meglumine-containing water was changed twice a week. […] Mice were monitored for tumor development. Tumor growth was assessed morphometrically using calipers, and tumor volumes were calculated according to the formula V (mm^3)=π/6×A×B^2 (A is larger diameter, B is the smaller diameter) (Buzzai et al.).
# [2] = Tolerability of meglumine in the drinking water (water consumption, adverse effects); assay type: in vivo; conditions: 37.5 mM meglumine in drinking water ad lib; K6/ODC transgenic mice and normal littermates
# Experimental: as §1
# skin tumors = conditions: DFMO given during the promotion phase; cited from earlier work
# [3] = K6/ODC transgenic mice, compared to control water, monitored 4 months
smiles,measurement,setting,value
CNC[C@H](O)[C@@H](O)[C@H](O)[C@H](O)CO.Cl [meglumine hydrochloride],LPS induced level of IL-8,THP-1 cells,decreased
same,LPS induced level of IL-9,THP-1 cells,decreased
same,LPS induced level of IL-17,THP-1 cells,decreased
same,LPS induced level of IP-10,THP-1 cells,decreased
same,LPS induced level of MIP-1 alpha,THP-1 cells,decreased
same,LPS induced level of MIP-1 beta,THP-1 cells,decreased
"CNC[C@H](O)[C@@H](O)[C@H](O)[C@H](O)CO [meglumine, (2R,3R,4R,5S)-6-methylaminohexane-1,2,3,4,5-pentol]",age at which all mice had skin tumors,"[1]; K6/ODC transgenic mice (6/6), 37.5 mM meglumine in drinking water, control (5/5): 50 days",73 days of age
same,age at which skin tumors first developed,"[1]; K6/ODC transgenic mice, 37.5 mM meglumine in drinking water, control tap water: 45 days",60 days of age
same,numbers of skin tumors,"[1]; K6/ODC transgenic mice, at any given age, compared to control tap water, monitored 4 months",fewer
same,cumulative tumor burden (average total tumor volume per mouse),[1]; [3],lower
same,tumor growth,[1]; [3],slowed
same,skin tumor development in normal littermates,"[1]; normal littermates n=10, with or without meglumine-supplemented water, single subthreshold dose of DMBA",no normal littermates
same,"adverse effects (weight loss, lethargy, ruffed fur, diarrhea, or general malaise)",[2],nor did it have any adverse effects
same,consumption of water,[2],did not affect
"NCCC[C@](N)(C(=O)O)C(F)F [DFMO, α-difluoromethylornithine]",development of skin tumors,skin tumors,inhibits
